{"source": "patent US20230332232A1", "about": "“COMPOSITIONS AND METHODS FOR DIAGNOSING AND TREATING A DYSTONIA” (Duke University, priority 2020, published 2023)", "tested_on": "wild-type (WT) murine embryonic fibroblasts (MEFs)", "assay": "Untargeted LC/MS/MS proteomics of EVs from WT MEFs exposed 24 hours to drug, compared with untreated WT MEFs", "assay_type": "cell-based, mouse", "conditions": "for direction of modulated EV protein expression: WT cells", "protocol": "Methods for isolation and purification of exosomes and extracellular vesicles (EV) were extensively reviewed. Experiments were performed to arrive at a robust and reproducible protocol. The protocol used herein is that set forth in Théry et al, 2006, which is incorporated by reference for it teaching of this protocol. This protocol involves depleting serum-derived EVs from cell culture media by overnight ultracentrifugation and exchanging media for 1% FBS EV-depleted media. Media is then collected from cells following a 24-hour conditioning period and EVs are isolated by 18-hour ultracentrifugation at 100,000 g (FIG. 1A).\nEVs were isolated from media of cultured murine embryonic fibroblasts (MEFs) prepared in-house according to protocols described by Xu 2005 from DYT1 knockin mice (Tor1a^delGAG/+) (Goodchild R E, et al. (2005) Neuron. 48:923-932) and littermate wild-type (WT) controls. The cultured MEFs from the DYT1 mice were exposed for 24 hours to Ritonavir (RTV) while the MEFs from WT mice were exposed to vehicle, ISRIB, or Salubrinal (SAL). The EVs isolated from these WT cells and DYT1 were characterized by untargeted proteomics and RNA-seq to identify differentially expressed proteins and RNAs as candidate biomarkers. Experimenter and Proteomics core staff were blinded to genotype of cell cultures throughout preparation and analysis phases. EV isolation was confirmed by Western immunoblot documenting presence of the exosomal marker (TSG101) and absence of the endoplasmic reticulum (ER) marker (CANX) (FIG. 1B (Cohort 1) and FIG. 1C (Cohort 2)).\nFollowing the bicinchoninic acid assay (BCA) analysis and Western immunoblot of a portion of samples for QC, 11.6 μg-129.2 μg of EV protein lysates in RIPA buffer were sent to the Duke Proteomics and Metabolomics Shared Resource core facility for LC/MS/MS quantitative proteomic analysis. Samples were first normalized to 20 μg and spiked with undigested casein at a total of 40 fmol/μg, 80 fmol/μg, or 160 fmol/μg, then reduced with 10 mM dithiolthreitol for 30 minute at 80° C. and alkylated with 20 mM iodoacetamide for 30 minutes at room temperature. Next, the samples were supplemented with a final concentration of 1.2% phosphoric acid and 741 μL of S-Trap (Protifi) binding buffer (90% MeOH/100 mM […]). Proteins were trapped on the S-Trap, digested using 20 ng/μL sequencing grade trypsin (Promega) for 1 hour at 47° C., and eluted using 50 mM TEAB, followed by 0.2% FA, and lastly using 50% CAN/0.2% FA. All samples were then lyophilized to dryness and resuspended in 40 μL 1% TFA/2% acetonitrile containing 12.5 fmol/μL yeast alcohol dehydrogenase (ADH_YEAST). A QC Pool was created from 3 uL of each sample. All QC Pools were run periodically throughout the acquisition period.\nQuantitative LC/MS/MS was performed on 2 μL of each sample, using a nanoAcquity UPLC system (Waters Corp) coupled to a Thermo Orbitrap Fusion Lumos high resolution accurate mass tandem mass spectrometer (Thermo) via a nanoelectrospray ionization source. Briefly, the sample was first trapped on a Symmetry C18 20 mm×180 μm trapping column (5 μL/min at 99.9/0.1 v/v water/acetonitrile), after which the analytical separation was performed using a 1.8 μm Acquity HSS T3 C18 75 μm×250 mm column (Waters Corp.) with a 90 minute linear gradient of 5% to 30% acetonitrile with 0.1% formic acid at a flow rate of 400 nanoliters/minute (nL/min) with a column temperature of 55° C. Data collection on the Fusion Lumos mass spectrometer was performed in a data-dependent acquisition (DDA) mode of acquisition with a r=120,000 (@ m/z 200) full MS scan from m/z 375-1500 with a target AGC value of 2e5 ions. MS/MS scans were acquired at Rapid scan rate (Ion Trap) with an AGC target of 5e3 ions and a max injection time of 100 ms. The total cycle time for MS and MS/MS scans was 2 seconds. A 20 second dynamic exclusion was employed to increase depth of coverage. The total analysis cycle time for each sample injection was approximately 2 hours. […]", "key": {"[1]": {"conditions": "EV protein Prep, Prolyl endopeptidase"}, "[2]": {"conditions": "EV protein Protein transport protein Sec31A"}, "[3]": {"conditions": "EV protein Q8BPB5, EGF-containing fibulin-like ECM protein 1"}, "[4]": {"conditions": "EV protein Q8C878, NEDD8-activating enzyme E1 catalytic subunit"}, "[5]": {"conditions": "EV protein Q8R081, Heterogeneous nuclear ribonucleoprotein 1"}, "[6]": {"conditions": "EV protein Q9D1M4, Eukaryotic translation EF1 epsilon-1"}, "[7]": {"conditions": "EV protein Q62261, Spectrin beta chain, non-crythrocytic 1"}, "[8]": {"conditions": "EV protein Q89051, Integral membrane protein 2B"}, "[9]": {"conditions": "EV protein Regulator of nonsense transcripts 1"}}}
{"smiles": "O=C(COc1ccc(Cl)cc1)NC1CCC(NC(=O)COc2ccc(Cl)cc2)CC1", "note": "(stereo not drawn) [ISRIB]", "values": [{"measurement": "ISRIBvWT Z Score", "setting": "EV protein P27612, Phospholipase A-2-activating protein", "result": "−2.39"}, {"measurement": "ISRIB Direction Same as dE?", "setting": "EV protein P48678, Prelamin-", "result": "yes"}, {"measurement": "ISRIBvWT Z Score", "setting": "EV protein P48678, Prelamin-", "result": "−0.19"}, {"measurement": "ISRIBvWT Z Score", "setting": "EV protein P61089, Ubiquitin-conjugating enzyme", "result": 0.41}, {"measurement": "ISRIBvWT Z Score", "setting": "EV protein Pdia4 (P08003)", "result": 1.37}, {"measurement": "ISRIBvWT Z Score", "setting": "EV protein Penk (P22005)", "result": "−0.11"}, {"measurement": "ISRIBvWT Z Score", "setting": "EV protein Plaa P27612", "result": "−2.39"}, {"measurement": "ISRIBvWT Z Score", "setting": "EV protein Pld3 (Q35405)", "result": 1.18}, {"measurement": "ISRIB Direction Same as dE?", "setting": "[1]", "result": "yes"}, {"measurement": "ISRIBvWT Z Score", "setting": "[1]", "result": "−1.11"}, {"measurement": "ISRIB Direction Same as dE?", "setting": "[2]", "result": "yes"}, {"measurement": "ISRIBvWT Z Score", "setting": "[2]", "result": "−1.34"}, {"measurement": "ISRIB Direction Same as dE?", "setting": "EV protein Prpf8 (Q99PV0)", "result": "yes"}, {"measurement": "ISRIBvWT Z Score", "setting": "EV protein Prpf8 (Q99PV0)", "result": "−0.01"}, {"measurement": "ISRIB Direction Same as dE?", "setting": "EV protein Psmd1 (Q3TXS7)", "result": "yes"}, {"measurement": "ISRIBvWT Z Score", "setting": "EV protein Psmd1 (Q3TXS7)", "result": "−0.65"}, {"measurement": "ISRIBvWT Z Score", "setting": "EV protein Pura (P42669)", "result": 0.52}, {"measurement": "ISRIBvWT Z Score", "setting": "EV protein Q6X893, Choline transporter-like protein 1", "result": 0.80}, {"measurement": "ISRIBvWT Z Score", "setting": "EV protein Q8BL97, Serine arginine-rich splicing factor 7", "result": 0.13}, {"measurement": "ISRIB Direction Same as dE?", "setting": "[3]", "result": "yes"}, {"measurement": "ISRIBvWT Z Score", "setting": "[3]", "result": 0.07}, {"measurement": "ISRIB Direction Same as dE?", "setting": "[4]", "result": "yes"}, {"measurement": "ISRIBvWT Z Score", "setting": "[4]", "result": "−1.68"}, {"measurement": "ISRIBvWT Z Score", "setting": "EV protein Q8C878 NEDD8-activating enzyme .. subunit", "result": "−1.68"}, {"measurement": "ISRIB Direction Same as dE?", "setting": "[5]", "result": "yes"}, {"measurement": "ISRIBvWT Z Score", "setting": "[5]", "result": "−0.32"}, {"measurement": "ISRIB Direction Same as dE?", "setting": "[6]", "result": "yes"}, {"measurement": "ISRIBvWT Z Score", "setting": "[6]", "result": "−3.65"}, {"measurement": "ISRIBvWT Z Score", "setting": "EV protein Q9FS30, Complement C1q tumor necrosis factor-related protein 3", "result": "−0.18"}, {"measurement": "ISRIBvWT Z Score", "setting": "EV protein Q9Z1Z0, General vesicular transport factor p115", "result": 2.44}, {"measurement": "ISRIBvWT Z Score", "setting": "EV protein Q9Z2X1 Heterogeneous nuclear ribonucleoprotein E", "result": "−0.18"}, {"measurement": "ISRIBvWT Z Score", "setting": "EV protein Q78ZA7, Nucelosome assembly protein 1-like 4", "result": 2.43}, {"measurement": "ISRIBvWT Z Score", "setting": "EV protein Q99KJ8 Dynactin subunit 2", "result": 0.53}, {"measurement": "ISRIBvWT Z Score", "setting": "EV protein Q922B2 Aspartate--tRNA ligase", "result": "−1.13"}, {"measurement": "ISRIBvWT Z Score", "setting": "EV protein Q01405 Protein transport protein .. 23A", "result": "−0.95"}, {"measurement": "ISRIBvWT Z Score", "setting": "EV protein Q60751, Insulin-like growth factor 1 receptor", "result": 0.75}, {"measurement": "ISRIB Direction Same as dE?", "setting": "[7]", "result": "yes"}, {"measurement": "ISRIBvWT Z Score", "setting": "[7]", "result": "−0.82"}, {"measurement": "ISRIB Direction Same as dE?", "setting": "[8]", "result": "yes"}, {"measurement": "ISRIBvWT Z Score", "setting": "[8]", "result": "−2.13"}, {"measurement": "ISRIB Direction Same as dE?", "setting": "EV protein Qars (Q8BML9)", "result": "yes"}, {"measurement": "ISRIBvWT Z Score", "setting": "EV protein Qars (Q8BML9)", "result": "−2.14"}, {"measurement": "ISRIBvWT Z Score", "setting": "EV protein Rab6a (P35279)", "result": 0.44}, {"measurement": "ISRIB Direction Same as dE?", "setting": "EV protein Rbbp4 (Q60972)", "result": "yes"}, {"measurement": "ISRIBvWT Z Score", "setting": "EV protein Rbbp4 (Q60972)", "result": "−1.73"}, {"measurement": "ISRIB Direction Same as dE?", "setting": "[9]", "result": "yes"}, {"measurement": "ISRIBvWT Z Score", "setting": "[9]", "result": "−1.84"}, {"measurement": "ISRIBvWT Z Score", "setting": "EV protein Rpl22 (P67984)", "result": 2.38}, {"measurement": "ISRIBvWT Z Score", "setting": "EV protein S100a11 (P50543)", "result": 0.33}, {"measurement": "ISRIBvWT Z Score", "setting": "EV protein Scarb2 (Q35114)", "result": 0.09}, {"measurement": "ISRIB Direction Same as dE?", "setting": "EV protein Sec23a (Q01405)", "result": "yes"}, {"measurement": "ISRIBvWT Z Score", "setting": "EV protein Sec23a (Q01405)", "result": "−0.95"}, {"measurement": "ISRIB Direction Same as dE?", "setting": "EV protein Shmt2 (Q9CZN7)", "result": "yes"}, {"measurement": "ISRIBvWT Z Score", "setting": "EV protein Shmt2 (Q9CZN7)", "result": "−1.44"}, {"measurement": "ISRIBvWT Z Score", "setting": "EV protein Shrnt2 Q9CZN7", "result": "−1.44"}, {"measurement": "ISRIB Direction Same as dE?", "setting": "EV protein Spp1 (P10923)", "result": "yes"}, {"measurement": "ISRIBvWT Z Score", "setting": "EV protein Spp1 (P10923)", "result": 2.67}, {"measurement": "ISRIB Direction Same as dE?", "setting": "EV protein Sptan1 (P16546)", "result": "yes"}, {"measurement": "ISRIBvWT Z Score", "setting": "EV protein Sptan1 (P16546)", "result": "−0.40"}, {"measurement": "ISRIBvWT Z Score", "setting": "EV protein Ssb (P32067)", "result": 0.41}, {"measurement": "ISRIB Direction Same as dE?", "setting": "EV protein Ssbp1 (Q9CYR0)", "result": "yes"}, {"measurement": "ISRIBvWT Z Score", "setting": "EV protein Ssbp1 (Q9CYR0)", "result": "−1.49"}, {"measurement": "ISRIBvWT Z Score", "setting": "EV protein Svep1 (A2A0A0)", "result": "−0.50"}, {"measurement": "ISRIB Direction Same as dE?", "setting": "EV protein Tars (Q9D0R2)", "result": "yes"}, {"measurement": "ISRIBvWT Z Score", "setting": "EV protein Tars (Q9D0R2)", "result": "−1.16"}, {"measurement": "ISRIBvWT Z Score", "setting": "EV protein Tra2b (P62996)", "result": 0.54}, {"measurement": "ISRIBvWT Z Score", "setting": "EV protein Vapa (Q9WV55)", "result": 3.18}, {"measurement": "direction of modulated EV protein expression", "setting": "RTV Therapeutic Efficacy with ISRIB Insensitivity subset, 33 proteins", "result": "in the opposite direction of DYT1 genotype-dependent direction"}, {"measurement": "direction of modulated EV protein expression", "setting": "RTV Therapeutic Efficacy with ISRIB Sensitivity subset, 121 proteins", "result": "modulated expression in a predicted pathological direction"}]}
